2 compounds from PMC4741878, “Specific inhibition by synthetic analogs of pyruvate reveals that the pyruvate dehydrogenase reaction is essential for metabolism and viability of glioblastoma cells” (Oncotarget, 2015) can be followed below.

For experiment [1], the target named is T1, pyruvate dehydrogenase (PDH; E1 component of the pyruvate dehydrogenase complex, PDHC) (Rattus norvegicus, UniProt P26284+P49432).
T1 construct: gene Pdha1; native PDHC partially purified from rat heart or liver; PDHC in alamethicin-permeabilized rat skeletal muscle mitochondria; with PDHB (E1 beta subunit), within the PDHC with DLAT, DLD and PDHX
Briefly: overall PDHC reaction by NADH production: Ki in permeabilized mitochondria; IC50 […] with isolated rat heart PDHC at […] pyruvate. Format: biochemical.

The target in experiment [2] is T1, pyruvate dehydrogenase (PDH; E1 component of the pyruvate dehydrogenase complex, PDHC). Briefly: overall PDHC reaction by NADH production: Ki in permeabilized mitochondria; IC50 […] with isolated rat heart PDHC ([…] min preincubation). Format: biochemical.

T1 sequence (P26284 30-390): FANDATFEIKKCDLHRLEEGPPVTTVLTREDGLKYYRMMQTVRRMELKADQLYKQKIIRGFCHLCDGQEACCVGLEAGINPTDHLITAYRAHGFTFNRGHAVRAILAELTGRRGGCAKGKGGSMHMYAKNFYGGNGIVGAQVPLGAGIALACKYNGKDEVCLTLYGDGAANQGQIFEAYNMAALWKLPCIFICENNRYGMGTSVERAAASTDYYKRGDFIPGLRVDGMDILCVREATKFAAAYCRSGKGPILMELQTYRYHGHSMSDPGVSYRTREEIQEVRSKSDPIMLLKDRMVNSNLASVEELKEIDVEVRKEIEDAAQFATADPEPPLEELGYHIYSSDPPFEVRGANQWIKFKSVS
T1 sequence (P49432 31-359): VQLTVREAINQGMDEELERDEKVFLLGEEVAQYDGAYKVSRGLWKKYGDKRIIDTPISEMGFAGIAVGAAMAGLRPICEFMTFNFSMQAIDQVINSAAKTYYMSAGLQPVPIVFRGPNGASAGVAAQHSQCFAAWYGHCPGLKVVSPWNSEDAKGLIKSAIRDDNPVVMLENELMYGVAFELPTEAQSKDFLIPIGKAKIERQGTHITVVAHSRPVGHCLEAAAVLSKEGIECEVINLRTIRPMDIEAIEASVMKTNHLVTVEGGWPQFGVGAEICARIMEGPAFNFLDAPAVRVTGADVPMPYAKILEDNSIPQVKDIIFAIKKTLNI
T1 sequence (P08461 78-632 partner): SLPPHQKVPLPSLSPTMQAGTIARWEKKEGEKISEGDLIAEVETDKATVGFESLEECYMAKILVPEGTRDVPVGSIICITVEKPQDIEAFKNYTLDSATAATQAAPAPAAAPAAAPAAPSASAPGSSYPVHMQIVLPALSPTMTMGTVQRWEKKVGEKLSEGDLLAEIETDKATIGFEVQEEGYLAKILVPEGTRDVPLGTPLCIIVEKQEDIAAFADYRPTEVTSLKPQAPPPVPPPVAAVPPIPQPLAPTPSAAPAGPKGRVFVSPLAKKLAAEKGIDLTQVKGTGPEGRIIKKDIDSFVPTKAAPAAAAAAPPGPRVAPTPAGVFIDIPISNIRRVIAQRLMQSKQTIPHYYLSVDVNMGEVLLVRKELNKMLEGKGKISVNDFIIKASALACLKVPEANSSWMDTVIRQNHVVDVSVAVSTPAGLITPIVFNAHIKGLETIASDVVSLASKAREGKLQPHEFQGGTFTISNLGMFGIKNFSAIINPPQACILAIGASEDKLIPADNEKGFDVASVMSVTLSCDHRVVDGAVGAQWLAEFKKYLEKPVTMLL
T1 sequence (Q6P6R2 36-509 partner): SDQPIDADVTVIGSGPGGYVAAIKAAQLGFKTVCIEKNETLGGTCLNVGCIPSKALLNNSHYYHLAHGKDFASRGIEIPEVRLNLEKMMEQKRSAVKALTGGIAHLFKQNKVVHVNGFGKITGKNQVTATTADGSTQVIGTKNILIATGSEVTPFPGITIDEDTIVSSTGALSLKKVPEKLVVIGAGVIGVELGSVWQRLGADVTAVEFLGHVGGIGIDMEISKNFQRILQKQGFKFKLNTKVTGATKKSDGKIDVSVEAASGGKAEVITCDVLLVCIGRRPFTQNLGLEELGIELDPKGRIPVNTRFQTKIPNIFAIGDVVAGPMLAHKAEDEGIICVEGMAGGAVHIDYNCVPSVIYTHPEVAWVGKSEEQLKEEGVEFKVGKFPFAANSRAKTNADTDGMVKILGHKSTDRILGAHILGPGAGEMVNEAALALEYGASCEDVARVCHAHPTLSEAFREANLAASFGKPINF

Regarding `COP(=O)(O)C(C)=O` [AcPMe, methyl ester of acetyl phosphonate], the Ki (as a rule, the equilibrium dissociation constant of an inhibitor or competing ligand from its target) in experiment [1] came out at 40 µM.
`CC(=O)[PH](=O)O` [AcPH, acetyl phosphinate] yielded a Ki in experiment [2] of 0.1 µM.
